Assay results taken from patent publication US20230142077A1, “COMPOSITION FOR PROMOTING ANGIOGENESIS USING LIQUID TYPE PLASMA AND METHOD FOR PROMOTING ANGIOGENESIS USING SAME” (AJOU UNIVERSITY INDUSTRY-ACADEMIC COOPERATION FOUNDATION, priority 2021, published 2023).

Experiments:
Format in all cases: cell-based, Human
[1] = tested on: intracellular nitric oxide (NO) in HUVECs; experiment: Intracellular NO production analysis (DAF-FM probe); details: L-NMMA (10 μM) with NTS, FIG. 6B
Protocol: Nitric oxide (NO) levels were confirmed by measuring fluorescence changes in 4-amino-5-methylamino-2′,7′-difluorofluorescein diacetate (DAF-FMDA, Thermo Fisher, D23844, Eugene, Oreg., USA) due to oxidation, respectively. Cells were cultured with reagents according to the manufacturer's instructions. Changes in DAF-FM fluorescence were measured by flow cytometry (BD Biosciences) and a fluorescence microscope (EVOS FL Auto, Thermo Fisher) after 24 hours. NG-methyl-L-arginine acetate salt (L-NMMA, Sigma, M7033) was used to suppress the production of nitric oxide (NO).

HUVEC tube formation = experiment: Tube formation analysis on Matrigel; details: L-NMMA (10 μM) with NTS, FIG. 6C
Protocol: HUVEC cells were trypsinized and then seeded onto a 96-well plate (2×10^4/well) pre-coated with 40 μl (10 mg/ml) of growth factor-reduced Matrigel (BD Biosciences, Billerica, Mass.) in an EBM2 medium.
After incubation at 37° C. for 30 minutes, 1 hour, 3 hours, and 6 hours, viable cells were detected by staining with Calcein AM (Trevigen, Gaithersburg, Md.), and then a capillary-like structure was imaged using EVOS FL Auto (ThermoFisher). Data in the images was quantified with National Institutes of Health (NIH) ImageJ 1.41q software.

eNOS (S1177) = experiment: Western blot, phosphorylated eNOS; details: FIG. 6A
Protocol: Western blot was performed using a known method. Cells were lysed in a RIPA buffer (Sigma Aldrich) including 150 mM NaCl, 1.0% Nonidet-P 40, 0.5% sodium deoxycholate, 0.1% sodium dodecyl sulfate, 50 mM Tri (pH 8.0), a protease inhibitor cocktail and PhoSTOP (Roche Molecular Biochemicals, Basel, Switzerland).
A primary antibody used in the present experiment was purchased from Cell Signaling (Danvers, Mass., USA) and VE-cadherin, p-LKB1, and LKB1 were purchased from Santa Cruz (Cambridge, UK). A secondary antibody (anti-rabbit IgG or anti-mouse IgG, 1:2000) was purchased from Cell Signaling Technology.
Data in the images was quantified with National Institutes of Health (NIH) ImageJ 1.41q software.

MMP-2 = experiment: Gelatin zymogram analysis; details: L-NMMA with NTS, FIG. 6F
Protocol: Matrix metalloproteases were analyzed using a known gelatin zymography method. The cells according to Example 2-1 were cultured in a 6-well plate (Corning Scientific, Rochester, N.Y., USA) and treated with NTS (60 sec/ml) or a vehicle control. Thereafter, the supernatant (100 μl) of each sample was mixed with 1 μl of 100 mM 4-aminophenylmercuric acetate (Sigma-Aldrich), and the sample was incubated at 37° C. for 1 hour. After each sample was placed in a sample buffer (excluding 2-mercaptoethanol) for 10 minutes, the samples were electrophoresed on an a 8% polyacrylamide gel containing 1% gelatin.
The gel was incubated at room temperature for 60 minutes in a regeneration buffer, and then incubated in 100 ml of a development buffer at 37° C. with gentle shaking. Thereafter, the gel was stained with Coomassie Brilliant Blue for 3 hours. After destaining with 400 ml of a destaining solution (methanol, 100 ml of acetic acid, 500 ml of distilled water), images were obtained using an image analyzer.

VE-cadherin = experiment: Immunocytochemical analysis, VE-cadherin; details: NTS+L-NMMA, FIG. 6G
Protocol: Immunocytochemical analysis was performed using a known method. The cells cultured according to Example 2-1 were additionally cultured on coverslips (Thermo Fisher Scientific, Rochester, N.Y., USA) and treated with NTS (60 sec/ml) or a vehicle control.
The coverslips were then treated with polyclonal rabbit anti-LC3B, p-FAK, and VE-Cadherin (1:200; Cell Signaling Technology, Danvers, Mass., USA), incubated for 2 hours, washed with PBS, and then incubated with an Alexa 488-labeled antibody for 1 hour.
Thereafter, after being washed three times with PBS, the slides were stained with Hoechst 33258 (Molecular Probe), and phalloidin (1:50; Molecular Probes, R415) was added thereto for 15 minutes to counterstain nuclei and F-actin. The stained coverslips were washed with PBS, mounted with Vectashield (Vector Laboratories, Inc., Burlingame, Calif., USA), and then analyzed using EVOS FL Auto (Thermo Fisher).

CC(=O)O.CNC(=N)NCCC[C@H](N)C(=O)O [L-NMMA, NG-methyl-L-arginine acetate salt]
intracellular nitric oxide by NTS [1]: significantly reduced | tubular network formed by NTS (HUVEC tube formation): significantly disrupted | p-eNOS phosphorylation by NTS (eNOS (S1177); L-NMMA (10 μM) with NTS): significantly reduced | phosphorylation of eNOS upregulated by NTS (eNOS (S1177); L-NMMA, 1 mM): significantly attenuated | NTS-activated MMP2 (MMP-2): significantly attenuated | NTS-induced reduction of VE-cadherin expression (VE-cadherin): significantly attenuated
